Measured values: US7488476B2, “B-cell epitope peptides of HSP 65, DNA encoding said peptides, antibodies directed against said peptides and the different uses thereof in the treatment of inflammatory and autoimmune diseases” (priority 1998, dated 2009)

Legend:
DBA/1 mice = experiment: Modulation of collagen arthritis in DBA/1 mice; type: in vivo, mouse; conditions: active vaccination
Lewis rats [1] = experiment: Anti HSP antibodies in Lewis rats immunized with HSP peptides (ELISA); type: in vivo, rat; conditions: 100 μg peptide in PBS, 3 times IP
Procedure: ELISA: Flat-bottomed 96 well plates (Corning) were coated with mammalian HSP 60 or Mycobacterial HSP 65 (10 μg/ml) in carbonate buffer pH 9.6 overnight at 4° C.
HSP peptides were attached to plates pre-treated with glutaraldehyde according to Kasprzyk et al.. Shortly, plates were coated with 100 μl/well of 5% w/v of glutaraldehyde in PBS for 1 hour at room temp. Plates were washed thoroughly with PBS and peptides (1 μg/100 μl) were added to each well, incubated overnight at 4° C. Plates were shaken dry and blocked with BSA 1% in PBS.
Plates coated with either HSP or peptides were washed again and incubated with rat sera diluted 1:100 with PBS-Tween 0.01% for 90 min. at room temp. After re-washing the plates were incubated with Goat anti rat IgG or IgM conjugated to alkaline-phosphatase for 60 min. at room temp. […] Optical density was measured photometrically at 405 nm.
Modulation of AA by mycobacterial and mammalian HSP peltides: HSP 65 derived peptides were tested for their ability to modulate the appearance or severity of AA in Lewis rats. Rats were immunized with 100 μg of each peptide in PBS, three weeks (3W), 2W and 1W before induction of AA by MT. Control rats received PBS. Rats were bled for testing antibody presence before injection of MT and 30 days post MT injection.
To test whether active immunization with bacterial or mammalian HSP peptides that are recognized by protective immunoglobulins can induce protection against AA, Lewis rats were immunized with the mycobacterial peptides 6, 7, 21, 31, 36, 45, 84, that bound antibodies from resistant Lewis rats (“protective” peptides), with some non-reactive mycobacterial HSP 65 peptides: peptide 26 (residues 151-166), 28 (residues 163-178) or peptide 70 (residues 415-430), and with the mammalian peptide 5.
Rats were injected 3 times intraperitoneally (IP), with one week intervals between injections before induction of AA with MT.

Lewis rats [2] = experiment: Modulation of Adjuvant Arthritis by pre-immunization with HSP peptides; type: in vivo, rat; conditions: 3 IP injections at one week intervals before AA induction with MT, FIG. 4
NOD mice = experiment: Peptide 6 immunization of NOD mice: onset of diabetes and antibodies by ELISA; type: in vivo, mouse
Procedure: Naive NOD mice were immunized 3 times intradermally (I.D.) with 100 μg peptide 6 (SEQ ID: No. 2) in CFA and IFA. Control mice received PBS. Mice were monitored for the onset of diabetes by glucose test and for anti-peptide 6 or anti-HSP 65 antibodies by ELISA. Mice immunized with the peptide developed anti-peptide 6 as well as anti-HSP 65 antibodies as detected by OD (1.52±0.07 and 1.43±0.13 respectively) in comparison to CFA immunized mice (0.05±0.01 and 0.01±0.01) and control mice (0.09±0.06 and 0.16±0.16).
To test whether active immunization with the bacterial HSP peptide 6 (SEQ ID: No. 2) can induce protective immunoglobulins against other autoimmune disorders, for instance autoimmune diabetes, NOD mice were immunized with the mycobacterial peptide 6 (“protective” peptide). Naive NOD mice were immunized 3 times I.D. with either 100 μg peptide 6 in CFA and IFA or PBS (control). Mice were monitored for the onset of diabetes by glucose test (appearance of hyperglycemia) and for anti-peptide 6 or […] antibodies by ELISA. Mice immunized with the peptide developed anti-peptide 6 as well as anti-HSP 65 antibodies as reflected by OD (1.52±0.07 and 1.43±0.13 respectively) in comparison to CFA immunized mice (0.05±0.Oland 0.01±0.01) and control mice (0.09±0.06 and 0.16±0.16).

rat immunoglobulins = experiment: ELISA: antibodies of rat sera to Mycobacterial HSP 65 and its peptides; type: binding
[3] = NOD mice immunized 3 times I.D. with 100 μg peptide 6 in CFA and IFA, ELISA

## GPKGRNVVLEKKWGAP [Peptide 6]
DBA/1 mice
  murine collagen arthritis: suppressed significantly
Lewis rats [1]; antigen M5
  Anti HSP Antibodies in Immunized Lewis Rats, Antigen M5: − (<O. 15 = −)
Lewis rats [1]; antigen MT-HSP 65
  Anti HSP Antibodies in Immunized Lewis Rats, Antigen MT-HSP 65: ++ (0.46-0.75 = ++)
Lewis rats [1]; antigen peptide 6
  Anti HSP Antibodies in Immunized Lewis Rats, Antigen 6: ++ (0.46-0.75 = ++)
Lewis rats [1]; antigen peptide 7
  Anti HSP Antibodies in Immunized Lewis Rats, Antigen 7: − (<O. 15 = −)
Lewis rats [2]
  AA disease severity after pre-immunization: significant suppression of disease severity
NOD mice; [3]
  anti-HSP 65 antibodies: 1.43±0.13 OD
  anti-peptide 6 antibodies: 1.52±0.07 OD
NOD mice; NOD mice, glucose test, FIG. 7
  appearance of the diabetic symptoms: clearly delayed
NOD mice; NOD mice, peptide-6 vaccinated group
  number of sick mice: significantly lowered
NOD mice; NOD mice, FIG. 7
  diabetes disease severity: significantly reduced
Rat immunoglobulins; strain BN-6w
  Antibodies to Mycobacterial HSP 65 Peptides: + (0.16-0.45 = +)
Rat immunoglobulins; strain Lew-4m
  Antibodies to Mycobacterial HSP 65 Peptides: + (0.16-0.45 = +)
Rat immunoglobulins; strain Lew-6w
  Antibodies to Mycobacterial HSP 65 Peptides: − (<O. 15 = −)
Rat immunoglobulins; strain Lew-9m
  Antibodies to Mycobacterial HSP 65 Peptides: + (0.16-0.45 = +)
Rat immunoglobulins; strain Lew-Post AA
  Antibodies to Mycobacterial HSP 65 Peptides: +++ (>0.75 = +++)
